# Test results published in patent US9511010B2, “Compounds useful in the treatment and/or care of the skin, hair and/or mucous membranes and their cosmetic or pharmaceutical compositions” (Lubrizol Advanced Materials, Inc., priority 2012, dated 2016).
# Key:
# FOXO response elements = assay: Stimulation of the expression of proteins regulated by FOXO: luciferase reporter under FOXO response elements; format: cell-based, human; details: 0.5 mg/mL, 24 hours; carrier (0.05% DMSO) = 100
# Protocol: The activation capacity of the FOXO response elements was evaluated in a human epithelial cell line stably transfected with the luciferase gene under the control of a regulatory sequence which contains different FOXO response elements which are in the promoters of the FOXO target genes. The activation capacity of the FOXO response elements indicates the expression of proteins regulated by FOXO. 30,000 cells per well were seeded in a total volume of 100 μL of RPMI 1640 culture medium. After 24 hours the cells with RPMI 1640 culture medium were washed and were incubated with the compounds of the invention at 0.5 mg/mL for 24 hours in a total volume of 100 μL per well. The carrier in which the compounds of the invention were dissolved was used (0.05% DMSO) as a negative control.
# The measurement of the activity of the promoter was carried out using the Steady-Go Luciferase Assay System kit following the manufacturer's instructions. The luminescence values (RLU/sec) caused by the reaction between luciferase and the substrate were quantified with a luminometer and normalized by the cell number (absorbance at 630 nm), and the activity of the promoter was determined, which was standardized with regard to the negative control values.
# (§1) Each experiment was carried out three times in 3 independent experiments.
# [1] = test system: HEKa primary keratinocytes; assay: Host cell reactivation (HCR) assay, activation of DNA repair in primary keratinocytes; format: cell-based, human; details: 24 hours, basal = 100
# Protocol: The host cell reactivation (HCR) assay was used in HEKa primary keratinocytes to evaluate the capacity of the peptides of the invention to repair the damage to the DNA in a biologically functional way. 40,000 cells per well were seeded and they were co-transfected with a control plasmid which constitutively expresses the Firefly luciferase gene (pGL3), previously damaged by UVC, and with an undamaged plasmid which constitutively expresses the Renilla luciferase gene (vector pRluc-N1(h)).
# Subsequently the cells were incubated with the compounds of the invention at 0.025 mg/mL and 0.5 mg/mL in EpiLife medium for 24 hours, after which the luminescence due to the activity of the Firefly and Renilla luciferases was measured using the Dual-Go Luciferase Assay System kit following the manufacturer's instructions. The carrier in which the compounds of the invention (EpiLife medium) were dissolved was used as a negative control. The activation percentage of the DNA repair for each sample was calculated standardizing the luminescence values of the Firefly luciferase with regard to the Renilla luciferase, subsequently standardizing with regard to the values of the negative control.
# as §1
# HDFa cells = assay: Photo repair effectiveness in human fibroblasts (Neutral Red viability, treatment after irradiation); format: cell-based; details: for Cell viability: irradiated control 63.06%; for Effectiveness Photo-repair (%): irradiated
# Protocol: HDFa cells were put in culture medium for 24 hours in 96-well plates to form monolayers at 37° C. and humidified air with 5% CO2. Afterwards the culture medium was changed for D-PBS and the cells were irradiated with a solar simulation lamp at ˜40 J/cm^2 for 180 min at room temperature. A control plate was kept in the dark for the same time at room temperature.
# Afterwards 0.5 mg/mL, 0.1 mg/mL, 0.01 mg/mL of Ac-L-Tyr-L-Glu-L-Lys-L-Leu-L-Gln-L-Val-NH2 (Ac-SEQ ID NO:22-NH2) in culture medium or culture medium alone (control) were added to the cells and they were incubated for 24 hours in darkness at 37° C. and humidified air with 5% CO2.
# The cell viability was determined with the Neutral Red dye, measuring the absorbency at 540 nm in a spectrophotometer.
# The photorepair effectiveness was determined by comparing the viability obtained in cells treated with Ac-L-Tyr-L-Glu-L-Lys-L-Leu-L-Gln-L-Val-N H2 (Ac-SEQ ID NO:22-NH2) with the irradiated and non-irradiated control cell response.
# [2] = test system: Fibroblasts from a sample of human skin; assay: Alkaline comet assay, protection against genotoxicity induced by photo-activated benzo[a]pyrene (BaP); format: cell-based; details: 0.01 mg/mL
# Protocol: Fibroblasts from a sample of human skin were isolated and incubated with 0.01 mg/mL of Ac-L-Tyr-L-Glu-L-Lys-L-Leu-L-Gln-L-Val-NH2 (Ac-SEQ ID NO:22-NH2) or carrier (control) with and without the presence of 40 μM BaP for 2 hours at 37° C. Once this contact time was over the cells were irradiated with 90 KJ/m^2 UVA/visible light (320-800 nm) for a maximum of 2 min at 4° C. to induce photo activation of BaP which damages the DNA. This damage was analyzed by the alkaline comet assay, detecting the DNA breakages. The protective effectiveness of the damage to the DNA of the different treatments was determined by analyzing the images using the software Fenestra Komet 5.5, expressing the damage to the DNA as the Olive Tail Moment (OTM; arbitrary units) and the χ^2 OTM function was determined, related to the quantity of damaged DNA, with the software TableCurve 2D.
# As a negative control all the non-irradiated treatments were included (control, 40 μM BaP, 0.01 mg/mL of Ac-SEQ ID NO:22-NH2 and 0.01 mg/mL of (Ac-SEQ ID NO:22-NH2)+40 μM BaP). In table 14 the protective effectiveness results of Ac-SEQ ID NO:22-NH2 in human fibroblasts are shown.
# The protection percentage conferred by the compound Ac-SEQ ID NO:22-NH2 against DNA damage induced by BaP was shown as the relationship of the value of χ^2 OTM for treatment with the compound Ac-SEQ ID NO:22-NH2 in the presence of photo-activated BaP with regard to the value of χ^2 OTM of the treatment with photo-activated BaP according to the formula resulting in a protection percentage conferred by the compound Ac-SEQ ID NO:22-NH2 against damage to DNA induced by BaP of 84.3%.
substance,measurement,setting,value
"Ac-YEKLQV-NH2 [Ac-SEQ ID NO: 22-NH2, Ac-L-Tyr-L-Glu-L-Lys-L-Leu-L-Gln-L-Val-NH2]",Stimulation Average (%) of the activation of the FOXO response factors,FOXO response elements,186%
same,"Activation Average (%) of DNA repair, HCR assay",[1]; 0.025 mg/mL,203%
same,"Activation Average (%) of DNA repair, HCR assay",[1]; 0.5 mg/mL,272%
same,Cell viability,HDFa cells; 0.01 mg/mL for 24 hours after irradiation ~40 J/cm^2,71.99%
same,Effectiveness Photo-repair (%),HDFa cells; 0.01 mg/mL,14.16%
same,Cell viability,HDFa cells; 0.1 mg/mL for 24 hours after irradiation ~40 J/cm^2,70.71%
same,Effectiveness Photo-repair (%),HDFa cells; 0.1 mg/mL,12.13%
same,Cell viability,HDFa cells; 0.5 mg/mL for 24 hours after irradiation ~40 J/cm^2,71.40%
same,Effectiveness Photo-repair (%),HDFa cells; 0.5 mg/mL,13.23%
same,χ^2 OTM,"[2]; 40 μM BaP, irradiation with UVA/visible, BaP alone 11.38",3.52
same,χ^2 OTM,"[2]; 40 μM BaP, no irradiation, BaP alone 2.07",2.18
same,χ^2 OTM,"[2]; no BaP, irradiation with UVA/visible, control 2.25",2.09
same,χ^2 OTM,"[2]; no BaP, no irradiation, control 2.08",2.26
same,protection percentage against damage to DNA induced by BaP,[2]; photo-activated 40 μM BaP,84.3%
